In patent US20150018384A1, “TREATMENT FOR HIGH CHOLESTEROL” (FibroGen, Inc., priority 2012, published 2015):

Test system: Cholesterol Biosynthesis Genes in the Mouse Liver
Assay: Microarray expression of cholesterol biosynthesis genes in mouse liver
Assay type: in vivo
Experimental: A number of PHI compounds were evaluated for their effect on the expression of cholesterol biosynthesis genes in mouse liver. […] Liver tissue was harvested and stored in RNALater (Life Technologies). Total RNA was isolated with Trizol (Life Technologies) and purified with RNEasy96 (Qiagen) according to the manufacturers' protocols. RNA concentration was measured by NanoDrop (Thermo), and quality was assessed by Bioanalyzer (Agilent).
Biotinylated microarray probe was prepared using the 3′IVT Express kit (Affymetrix) and hybridized to mouse 430A 2.0 arrays as recommended in the manufacturer's protocol. Arrays were stained, washed, and scanned using Affymetrix equipment and software. Three arrays were run for each treatment and time point, each representing the liver sample from one individual animal.
Animals were sacrificed 4 h or 8 h later. Each compound was tested in a separate animal study with separate controls. Liver tissue was harvested and stored in RNALater (Life Technologies). Total RNA was isolated with Trizol (Life Technologies) and purified with RNEasy96 (Qiagen) according to the manufacturers' protocols. RNA concentration was measured by NanoDrop (Thermo), and quality was assessed by Bioanalyzer (Agilent).
For microarray analysis, RNA from animals in each treatment group was pooled in pairs (n=3 pairs for 4 h vehicle, n=2 pairs for all other treatment groups, for a total of 13 arrays per compound study). This approach was used to improve the signal-to-noise ratio on microarrays. Biotinylated probe was prepared using the One-Cycle cDNA synthesis kit (Affymetrix) and hybridized to mouse 430A 2.0 arrays as recommended in the manufacturer's protocol. Arrays were stained, washed, and scanned using Affymetrix equipment and software.
Array quality was assessed with GeneChip Operating System and/or Command Console software (Affymetrix). CEL files were uploaded to GeneSpring 7.3.1 (Agilent) using GC-RMA baseline correction. Principal Components Analysis was used to identify and reject outlier arrays. Data are reported as fold-change compared to timepoint-matched vehicle controls from the same study. Values less than 1.0 indicate a reduction of RNA in the treated animal liver tissue.

Structure (SMILES): COc1ccc(Cn2c(Cl)c(Cl)c3c(O)c(C(=O)NCC(=O)O)nc(C#N)c32)cc1 [Compound F]
- 3-hydroxy-3-methylglutaryl-Coenzyme A reductase (Hmgcr) RNA expression (10 mg/kg oral, 4 h): 0.17 fold-change
- 3-hydroxy-3-methylglutaryl-Coenzyme A synthase 1 (Hmgcs1) RNA expression (10 mg/kg oral, 4 h): 0.36 fold-change
- 7-dehydrocholesterol reductase (Dhcr7) RNA expression (10 mg/kg oral, 4 h): 0.63 fold-change
- NAD(P) dependent steroid dehydrogenase-like (Nsdhl) RNA expression (10 mg/kg oral, 4 h): 0.55 fold-change
- acetyl-Coenzyme A acetyltransferase 2 (Acat2) RNA expression (10 mg/kg oral, 4 h): 0.77 fold-change
- cytochrome P450, family 51 (Cyp51) RNA expression (10 mg/kg oral, 4 h): 0.62 fold-change
- farnesyl diphosphate farnesyl transferase 1 (Fdft1) RNA expression (10 mg/kg oral, 4 h): 0.56 fold-change
- farnesyl diphosphate synthetase (Fdps) RNA expression (10 mg/kg oral, 4 h): 0.43 fold-change
- isopentenyl-diphosphate delta isomerase (Idi1) RNA expression (10 mg/kg oral, 4 h): 0.50 fold-change
- lanosterol synthase (Lss) RNA expression (10 mg/kg oral, 4 h): 0.51 fold-change
- mevalonate (diphospho) decarboxylase (Mvd) RNA expression (10 mg/kg oral, 4 h): 0.28 fold-change
- mevalonate kinase (Mvk) RNA expression (10 mg/kg oral, 4 h): 0.76 fold-change
- phosphomevalonate kinase (Pmvk) RNA expression (10 mg/kg oral, 4 h): 0.66 fold-change
- squalene epoxidase (Sqle) RNA expression (10 mg/kg oral, 4 h): 0.48 fold-change
- sterol-C4-methyl oxidase-like (Sc4mol) RNA expression (10 mg/kg oral, 4 h): 0.39 fold-change
- sterol-C5-desaturase (fungal ERG3, delta-5-desaturase) homolog (S. cerevisae) (Sc5d) RNA expression (10 mg/kg oral, 4 h): 0.49 fold-change
- 3-hydroxy-3-methylglutaryl-Coenzyme A reductase (Hmgcr) RNA expression (10 mg/kg oral, 8 h): 0.66 fold-change
- 3-hydroxy-3-methylglutaryl-Coenzyme A synthase 1 (Hmgcs1) RNA expression (10 mg/kg oral, 8 h): 1.23 fold-change
- 7-dehydrocholesterol reductase (Dhcr7) RNA expression (10 mg/kg oral, 8 h): 1.18 fold-change
- NAD(P) dependent steroid dehydrogenase-like (Nsdhl) RNA expression (10 mg/kg oral, 8 h): 1.40 fold-change
- acetyl-Coenzyme A acetyltransferase 2 (Acat2) RNA expression (10 mg/kg oral, 8 h): 1.09 fold-change
- cytochrome P450, family 51 (Cyp51) RNA expression (10 mg/kg oral, 8 h): 1.05 fold-change
- farnesyl diphosphate farnesyl transferase 1 (Fdft1) RNA expression (10 mg/kg oral, 8 h): 1.42 fold-change
- farnesyl diphosphate synthetase (Fdps) RNA expression (10 mg/kg oral, 8 h): 1.15 fold-change
- isopentenyl-diphosphate delta isomerase (Idi1) RNA expression (10 mg/kg oral, 8 h): 1.08 fold-change
- lanosterol synthase (Lss) RNA expression (10 mg/kg oral, 8 h): 1.04 fold-change
- mevalonate (diphospho) decarboxylase (Mvd) RNA expression (10 mg/kg oral, 8 h): 0.58 fold-change
- mevalonate kinase (Mvk) RNA expression (10 mg/kg oral, 8 h): 0.88 fold-change
- phosphomevalonate kinase (Pmvk) RNA expression (10 mg/kg oral, 8 h): 1.53 fold-change
- squalene epoxidase (Sqle) RNA expression (10 mg/kg oral, 8 h): 0.81 fold-change
- sterol-C4-methyl oxidase-like (Sc4mol) RNA expression (10 mg/kg oral, 8 h): 0.92 fold-change
- sterol-C5-desaturase (fungal ERG3, delta-5-desaturase) homolog (S. cerevisae) (Sc5d) RNA expression (10 mg/kg oral, 8 h): 0.52 fold-change

Structure (SMILES): CC(C)Oc1ccc2c(O)c(C(=O)NCC(=O)O)nc(C#N)c2c1 [Compound H, [(1-Cyano-4-hydroxy-7-isopropoxy-isoquinoline-3-carbonyl)-amino]-acetic acid]
- 3-hydroxy-3-methylglutaryl-Coenzyme A reductase (Hmgcr) RNA expression (60 mg/kg oral, 4 h): 0.23 fold-change
- 3-hydroxy-3-methylglutaryl-Coenzyme A synthase 1 (Hmgcs1) RNA expression (60 mg/kg oral, 4 h): 0.62 fold-change
- 7-dehydrocholesterol reductase (Dhcr7) RNA expression (60 mg/kg oral, 4 h): 0.83 fold-change
- NAD(P) dependent steroid dehydrogenase-like (Nsdhl) RNA expression (60 mg/kg oral, 4 h): 0.76 fold-change
- acetyl-Coenzyme A acetyltransferase 2 (Acat2) RNA expression (60 mg/kg oral, 4 h): 0.71 fold-change
- cytochrome P450, family 51 (Cyp51) RNA expression (60 mg/kg oral, 4 h): 0.66 fold-change
- farnesyl diphosphate farnesyl transferase 1 (Fdft1) RNA expression (60 mg/kg oral, 4 h): 0.59 fold-change
- farnesyl diphosphate synthetase (Fdps) RNA expression (60 mg/kg oral, 4 h): 0.69 fold-change
- isopentenyl-diphosphate delta isomerase (Idi1) RNA expression (60 mg/kg oral, 4 h): 0.63 fold-change
- lanosterol synthase (Lss) RNA expression (60 mg/kg oral, 4 h): 0.65 fold-change
- mevalonate (diphospho) decarboxylase (Mvd) RNA expression (60 mg/kg oral, 4 h): 0.45 fold-change
- mevalonate kinase (Mvk) RNA expression (60 mg/kg oral, 4 h): 0.74 fold-change
- phosphomevalonate kinase (Pmvk) RNA expression (60 mg/kg oral, 4 h): 0.71 fold-change
- squalene epoxidase (Sqle) RNA expression (60 mg/kg oral, 4 h): 0.95 fold-change
- sterol-C4-methyl oxidase-like (Sc4mol) RNA expression (60 mg/kg oral, 4 h): 0.50 fold-change
- sterol-C5-desaturase (fungal ERG3, delta-5-desaturase) homolog (S. cerevisae) (Sc5d) RNA expression (60 mg/kg oral, 4 h): 0.92 fold-change
- 3-hydroxy-3-methylglutaryl-Coenzyme A reductase (Hmgcr) RNA expression (60 mg/kg oral, 8 h): 0.17 fold-change
- 3-hydroxy-3-methylglutaryl-Coenzyme A synthase 1 (Hmgcs1) RNA expression (60 mg/kg oral, 8 h): 0.19 fold-change
- 7-dehydrocholesterol reductase (Dhcr7) RNA expression (60 mg/kg oral, 8 h): 0.39 fold-change
- NAD(P) dependent steroid dehydrogenase-like (Nsdhl) RNA expression (60 mg/kg oral, 8 h): 0.34 fold-change
- acetyl-Coenzyme A acetyltransferase 2 (Acat2) RNA expression (60 mg/kg oral, 8 h): 0.44 fold-change
- cytochrome P450, family 51 (Cyp51) RNA expression (60 mg/kg oral, 8 h): 0.28 fold-change
- farnesyl diphosphate farnesyl transferase 1 (Fdft1) RNA expression (60 mg/kg oral, 8 h): 0.33 fold-change
- farnesyl diphosphate synthetase (Fdps) RNA expression (60 mg/kg oral, 8 h): 0.24 fold-change
- isopentenyl-diphosphate delta isomerase (Idi1) RNA expression (60 mg/kg oral, 8 h): 0.28 fold-change
- lanosterol synthase (Lss) RNA expression (60 mg/kg oral, 8 h): 0.35 fold-change
- mevalonate (diphospho) decarboxylase (Mvd) RNA expression (60 mg/kg oral, 8 h): 0.24 fold-change
- mevalonate kinase (Mvk) RNA expression (60 mg/kg oral, 8 h): 0.37 fold-change
- phosphomevalonate kinase (Pmvk) RNA expression (60 mg/kg oral, 8 h): 0.5 fold-change
- squalene epoxidase (Sqle) RNA expression (60 mg/kg oral, 8 h): 0.30 fold-change
- sterol-C4-methyl oxidase-like (Sc4mol) RNA expression (60 mg/kg oral, 8 h): 0.19 fold-change
- sterol-C5-desaturase (fungal ERG3, delta-5-desaturase) homolog (S. cerevisae) (Sc5d) RNA expression (60 mg/kg oral, 8 h): 0.61 fold-change
